Results as given in patent publication US5801150A, “Aminopyri(mi)dine derivatives combined with amino acids, and pharmacological activities thereof” (priority 1993, dated 1998).
pIC50: −log10 of the molar value.

Legend:
[1] = Sensing superoxide anion: auto-oxidation of adrenaline (adrenochrome at 480 nm); format: biochemical; conditions: for % of inhibition: pH 10.2; for pIC50: superoxide anion, adrenaline auto-oxidation, read-out: concentration at which there is obtained 50% inhibition
Source text: The methods used can produce selectively a chosen type of FR (superoxide anion or hydroxyl radical). The detector must be able to detect proportionally all the FR formed.
Step of production and detection of FR: the radicular source supplies the free radical which will react with a detector to form a modified detector. This latter could be quantified directly or after interaction with an analytic reaction complement by spectrophotometric analysis. [drawing 9]
Determination either of the percent of sensing or of the speed constant of the sensor: a sensor enters into competition with the detector to form a modified sensor. There is obtained a reduction of the quantity of the modified detector which gives us, after mathematical analysis, either the speed constant of the reaction of the sensor with the radical, or the percentage of sensing of this radical by the sensor.
The methodology is the auto-oxidation of adrenaline: adrenaline plays the double role of producing superoxide anion and serving as a detector. Adrenaline which is stable at acid pH, oxidizes spontaneously at alkaline pH. This complex reaction gives after several steps, adrenochrome. The superoxide anion participates in it as an oxidizing agent. The formation of adrenochrome is followed at 480 nm. [drawing 10] Capture of the superoxide anion: oxidation of adrenaline
The reaction medium is constituted by 3.1 ml of sodium carbonate (0.05M) at pH 10.2 containing EDTA (0.1 mM). The oxidation reaction is initiated by the addition of 0.2 ml of adrenaline (0.01M, in 0.02N HCl). The formation of adrenochrome is followed for 2 mins. at 480 nm. The compounds to be studied are added with the aide of 0.02 ml of DMSO, before the addition of adrenaline.
The capacity of the substances to sense the superoxide anion is expressed in terms of percentage of inhibition (%I). [formula] A0 and A are respectively the absorbance of the detector modified in the absence and in the presence of the derivative studied.

[2] = Capture of the hydroxyl radical: Fenton reaction, oxidative degradation of deoxyribose (532 nm); format: biochemical; conditions: for k Obtained (speed constant of the reaction with OH°): individual values of 2 or 3 tests; for k Obtained (speed constant of the reaction with OH°) / Mean k (speed constant of the reaction with OH°): pH 7.4, 37° C.; for Mean k (speed constant of the reaction with OH°): mean of 2 or 3 tests; for speed constant with respect to mannitol: ratio to mannitol
Source text: The Fenton reaction, the catalytic decomposition of hydrogen peroxide (H2 O2) by the action of Fe^2+, has been used to produce the hydroxyl radical Because of its widespread use, the test of oxidative degradation of deoxyribose has been selected for our study. The hydroxyl radical generated by the Fenton reaction degrades the deoxyribose and produces malonaldehyde which forms a colored complex with thiobarbituric acid. This complex is quantified by colorimetry at a wavelength of 532 nm. This methodology can be represented by the following scheme: [drawing 11] The speed constants have been determined by using the Halliwell method with modifications. The final kinematic equation is the following [formula] A and A0 : absorbances at 532 nm of the complex in the presence and in the absence of the studied derivative. kS and kd : speed constants of the reaction of OH° with the studied derivative and deoxyribose. S and D: concentrations of studied derivative and of deoxyribose. kx : term representing the reactivity of the radical OH° reacting with reagents of the Fenton reaction. In tracing the straight line 1/A as a function of the concentration S, the speed constant kS is determined. […] The reaction is initiated by the addition of the iron EDTA complex (0.13 mM (NH4)2 Fe(SO4)2; 0.143 mM EDTA). After 15 mins. of incubation at 37° C., the reaction is stopped by the addition of 1.5 ml of cold trichloroacetic acid (TCA) (2.8%). 1 ml of this solution is mixed with 1 ml of thiobarbituric acid (TBA) (1% in 0.05M NaOH) and heated for 15 mins. at 100° C. Then, the specimens are cooled and quantified at 532 nm.

[3] = topical application, cited from earlier work
keratinocytes, hair = conditions: topical, cited from earlier work
[4] = literature value; cited from earlier work
[5] = apart from SOD; cited from earlier work

| pIC50 [1] | SMILES | % of inhibition ([1]; Conc. 0.1 mM) [%] | % of inhibition ([1]; Conc. 0.2 mM) [%] | % of inhibition ([1]; Conc. 0.3 mM) [%] | % of inhibition ([1]; Conc. 0.5 mM) [%] | % of inhibition ([1]; Conc. 0.6 mM) | k Obtained (speed constant of the reaction with OH°) [2] | Mean k (speed constant of the reaction with OH°) [2] | Literature k (speed constant of the reaction with OH°) [4] | other results |
| --- | --- | --- | --- | --- | --- | --- | --- | --- | --- | --- |
| ~3.60 | Nc1cc(N2CCCCC2)nc(N)[n+]1[O-] [Minoxidil, 2,4-diamino-6-piperidinopyrimidine-3-oxide] | 25.62 | 41.86 | 57.20 | 74.12 | 82.70% | 10.20-11.40 10^9 M^-1.s^-1 | 10.80 10^9 M^-1.s^-1 | – | % of inhibition ([1]; Conc. 0.05 mM): 11.71%; average quantity of the applied dose reaching the blood stream ([3]; average): 1.4%; quantity of the applied dose reaching the blood stream, range ([3]; range of values): 0.3 to 4.5%; growth of keratinocytes and of hair (keratinocytes, hair; certain subjects having androgenic alopecy): stimulates the in vitro and in vivo growth of keratinocytes, and the growth of hair; time of use to appearance of the growth phenomenon (keratinocytes, hair; varies as a function of the subjects): about four months (or more) |
| – | CSCC[C@H](N)C(=O)O [Methionine] | – | – | – | – | – | 5.02-5.36 10^9 M^-1.s^-1 | 5.19 10^9 M^-1.s^-1 | 6.5 10^9 M^-1.s^-1 | – |
| ~4.29 | N[C@@H](CS)C(=O)O [cysteine] | – | – | – | – | – | – | – | – | % of inhibition ([1]; cysteine 0.005 mM): 6.52%; % of inhibition ([1]; cysteine 0.008 mM): 8.58%; % of inhibition ([1]; cysteine 0.01 mM): 9.61%; % of inhibition ([1]; cysteine 0.03 mM): 31.72%; % of inhibition ([1]; cysteine 0.04 mM): 34.45%; % of inhibition ([1]; cysteine 0.05 mM): 46.71%; % of inhibition ([1]; cysteine 0.06 mM): 51.93%; % of inhibition ([1]; cysteine 0.07 mM): 57.17%; reactivity with respect to the superoxide anion [5]: most reactive with respect to the superoxide anion |
| – | CSCCC(NC(C)=O)C(=O)Nc1cc(N2CCCCC2)nc(N)[n+]1[O-] (racemic) [Monosubstituted (N-acetyl-methionine), amide of 2,4-diamino-6-piperidinopyrimidine-3-oxide and N-acetyl-D,L-methionine] | 7.57 | 14.49 | 19.38 | 27.17 | 32.01% | 13.10-13.40 10^9 M^-1.s^-1 | 13.25 10^9 M^-1.s^-1 | – | % of inhibition ([1]; Conc. 0.4 mM): 25.71%; % of inhibition ([1]; Conc. 0.6 mM, listed as monosubstituted compound): 32% |
| – | Nc1cc(N2CCCCC2)nc(N)n1 [Reduced minoxidil] | – | – | – | – | – | 8.47-9.16 10^9 M^-1.s^-1 | 8.81 10^9 M^-1.s^-1 | – | speed constant with respect to mannitol [2]: five times |
| – | CSCC[C@H](NC(C)=O)C(=O)O [N-acetyl-methionine] | – | – | – | – | not observed activity | – | 6.02 10^9 M^-1.s^-1 | 6.7 10^9 M^-1.s^-1 | inhibition ([1]; 2 mM): 10% |
| ~3.17 | CSCCC(NC(C)=O)C(=O)Nc1cc(N2CCCCC2)nc(NC(=O)C(CCSC)NC(C)=O)[n+]1[O-] (racemic) [Disubstituted (N-acetyl-methionine), diamide of 2,4-diamino-6-piperidinopyrimidine-3-oxide and N-acetyl-D,L-methionine] | 10.56 | 15.62 | 25.99 | 38.71 | 43.75% | 19.40-19.50 10^9 M^-1.s^-1 | 19.45 10^9 M^-1.s^-1 | – | % of inhibition ([1]; Conc. 0.4 mM): 30.77%; % of inhibition ([1]; Conc. 0.7 mM): 53.22%; speed constant with respect to mannitol [2]: more than eleven times |
| – | OC[C@@H](O)[C@@H](O)[C@H](O)[C@H](O)CO [Mannitol] | – | – | – | – | – | 1.52-1.84 10^9 M^-1.s^-1 | 1.68 10^9 M^-1.s^-1 | 1.8 10^9 M^-1.s^-1 | – |
